# In patent US20240270713A1, “NOVEL COMPOUND EXHIBITING THERAPEUTIC EFFECT ON INFLAMMATORY DISEASE AS P38 MAP KINASE INHIBITOR” (PRAZERTHERAPEUTICS INC., priority 2021, published 2024):
# How the values were obtained:
# [1] = target: p-p38 MAPK (Mus musculus (Mouse), UniProt P47811); test: p38 MAPK protein inhibitory ability in normal brain cells (p-p38 immunoblot, primary neurons); format: cell-based, ICR mice
# Text: Evaluation of p38 MAPK protein inhibitory ability in normal brain cells
# In order to identify inhibition of p-p38 MAPK in normal cells rather than cancer cells, the inhibition of p38 MAPK was identified by inducing inflammation after treating neuron cells obtained from cerebrum of ICR mice with each compound. In short, neurons were collected from the cerebrum of the embryos of ICR mice 17-18 days after gestation and cultured for 7 days in a neurobasal medium supplemented with 2% B27 supplements, 2 mM glutamine, and penicillin/streptomycin (100 U/ml). Primary neurons were treated with 1 μM of Compounds 4 and 6 according to the present disclosure in a culture dish respectively and cultured for 24 hours in a CO2 incubator, and then treated with 1000 ng/ml of LPS, followed by additional culture for 6 hours in a CO2 incubator.
# After the cell culture was terminated according to the experimental conditions, washing was performed with cold phosphate buffered saline (PBS). The cells were then collected and centrifuged at 1200 rpm for 3 minutes. The cells in the sediment were lysed with 2X sample buffer (1M Tris-HCl pH 6.8, 50% glycerol, 10% SDS, 2-mercaptoethanol, 1% bromophenol blue) and boiled at 100° C. for 10 minutes. The prepared protein samples were subjected to sodium dodecyl sulfate poly acrylamide gel electrophoresis and transferred to PVDF membrane (Millipore). For a specific binding reaction between the protein in the PVDF membrane and antibody, blocking was performed in a 5% bovine serum albumin (BSA, RMbio) solution. Subsequently, the BSA solution was discarded, and the membrane was washed with PBS-T (0.5% Tween 20 in PBS). The binding reaction between the protein in the membrane and antibody was performed overnight at 4° C. and washed again with PBS-T. Finally, a secondary antibody (Cell signaling Technology) conjugated with horse radish peroxidase (HRP) was diluted in PBS-T and reacted at room temperature for 2 hours. Luminata Forte HRP substrate (Millipore) was used to determine the amount of protein in the membrane, the results of which are shown in Table 9 below.
# [2] = test system: TNFα mRNA; test: Cytokine mRNA expression inhibitory ability, TNFα, LPS-treated BV2 cells; format: cell-based; details: 1 μM compound 24 hours, then 1000 ng/ml LPS 24 hours
# Protocol: Evaluation of cytokine mRNA expression inhibitory ability by inflammatory response
# In order to identify inhibition of p-p38 MAPK, the inhibition of p38 MAPK was identified by treating each compound to BV2 cells obtained by converting microglia that induces inflammation according to p-p38 MAPK activity in the brain into cancerous cells. Briefly, BV2 cells were cultured in Dulbecco's modified Eagle Medium supplemented with 10% fetal bovine serum and penicillin/streptomycin (100 U/ml). BV2 cells were treated with 1 μM of Compounds 4 to 6 according to the present disclosure in a culture dish respectively and cultured for 24 hours in a CO2 incubator, and then treated with 1000 ng/ml of LPS, followed by additional culture for 24 hours in a CO2 incubator.
# After the cell culture was completed according to the experimental conditions, washing was performed with cold phosphate buffered saline (PBS). The cells were then collected and centrifuged at 1200 rpm for 3 minutes. RNA was extracted according to the method provided in the Hybrid-R total RNA purification kit (GeneAllR), 305-101). After measuring the concentration and purity of RNA using Nanodrop, cDNA was synthesized according to the method provided in TOPscript RT DryMIX (Enzynomics, RT200). […]
# Sequence of p-p38 MAPK (P47811 whole entry): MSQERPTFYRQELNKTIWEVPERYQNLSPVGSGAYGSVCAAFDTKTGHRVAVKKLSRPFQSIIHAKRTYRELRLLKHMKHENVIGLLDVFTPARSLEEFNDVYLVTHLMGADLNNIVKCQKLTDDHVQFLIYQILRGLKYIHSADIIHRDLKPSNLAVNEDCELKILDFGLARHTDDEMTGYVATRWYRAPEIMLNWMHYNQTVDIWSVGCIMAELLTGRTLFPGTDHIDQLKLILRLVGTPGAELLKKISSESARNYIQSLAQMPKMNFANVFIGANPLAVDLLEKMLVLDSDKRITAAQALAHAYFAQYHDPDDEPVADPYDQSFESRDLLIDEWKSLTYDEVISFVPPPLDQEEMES
smiles,measurement,setting,value
"Cc1c(F)cc(C(=O)NC2CC2)cc1-c1ccc(C(=O)c2c[nH]c3ccccc23)cn1 [Compound 4, 3-(5-(1H-indole-3-carbonyl)pyridin-2-yl)-N-cyclopropyl-5-fluoro-4-methylbenzamide]",p38 phosphorylation due to inflammation in normal cells (result in words),"[1]; primary mouse neurons, 1 μM",effectively inhibited p38 phosphorylation
same,inhibition at 1 µM,"[1]; primary neurons from cerebrum of ICR mouse embryos, 1 μM compound 24 hours, then 1000 ng/ml LPS 6 hours",55.8%
same,TNFα mRNA inhibition,[2],24.5%
